Data taken from patent publication US20060247260A1, “Bis (hetero) aryl carboxamide derivatives for use as PG12 antagonists” (BAYER HEALTHCARE AG, priority 2003, published 2006).

target: T1, PGI2 receptor (Homo sapiens, UniProt P43119); test: PGI2 receptor binding/cAMP in HEL cells (in vitro activity grade); details: compounds of purity about 40 to 90%
T1 construct: host or cells: HEL 92.1.7 human erythroleukemia cells (whole cells)
Protocol: [Measurement of the [^3H]-Iloprost Binding to HEL Cells] (Assay 1) A human erythloleukemia cell line, HEL 92.1.7, was purchased from American Type Culture Correction and maintained in RPMI-1640 medium (Gibco BRL) supplemented with 10% fetal calf serum (FCS), 2 mM glutamine, 4.5 g/L glucose, 10 mM Hepes, 1 mM sodium pyruvate, 100 U/ml penicillin, and 100 μg/ml streptomycin in a humidified 5% CO2 atmosphere at 37° C. Cells were collected with centrifugation and washed with binding assay buffer (BAB: 50 mM Tris-HCl, 5 mM MgCl2 (pH 7.5)). Cells were suspended at the density of 6.25×10^6 cells/ml in BAB, and one million cells in 160 μl aliquot of cell suspension were put in a well of 96 well plate (Falcon). Then, 20 μl of compound solution, 100 μM of iloprost (for non-specific binding), or buffer alone (total binding), diluted with 1% DMSO in BAB was added. Finally, another 20 μl containing [^3H]-iloprost (0.02 μCi, 0.5-1 pmol) in BAB was added and incubated at room temperature for 30 min with a gentle shaking. Cell suspension was then transferred to a well of MultiScreen plate with GF/C glass filters (Millipore) to harvest cells. Cells were washed twice with 200 μl of ice-cold BAB and the plate was kept at 55° C. for 30 min to dry filters. The filter in the well was punched out to a counting tube and 2 ml of Ultima Gold XR Packard) was added. [^3H]-radio activity in the filter was measured by a liquid scintillation counter (Beckman, USA). [Iloprost-Induced cAMP Production Assay in HEL Cells] (Assay 2) HEL cells were collected with centrifugation and washed with cAMP assay buffer (CAB: Hank's balanced salt solution, 17 mM Hepes, 0.1% bovine serum albumin, 1 mM IBMX, 0.4% DMSO, and 1 mM L-ascorbic acid sodium salt (pH 7.4)). Cells were suspended at the density of 2.5×10^5 cells/ml in CAB, and twenty thousand cells in 80 μl aliquot of cell suspension were put in a well of 96 well plate (Falcon). Then, 10 μl of compound solution diluted with 1% DMSO in CAB or buffer alone was added. The plate was incubated at 37° C. for 30 min. Then, another 10 μl containing 100 nM iloprost in CAB or buffer alone was added and further incubated at 37° C. for 30 min. cAMP content in the well was measured by, a cAMP ELISA kit (Applied Biosystems, USA). The data corresponds to the compounds as yielded by solid phase synthesis and thus to levels of purity of about 40 to 90%. For practical reasons, the compounds are grouped in three classes of activity as follows: In vitro activity grade=A≦0.1 μM<B≦1 μM<C

T1 sequence (P43119 whole entry): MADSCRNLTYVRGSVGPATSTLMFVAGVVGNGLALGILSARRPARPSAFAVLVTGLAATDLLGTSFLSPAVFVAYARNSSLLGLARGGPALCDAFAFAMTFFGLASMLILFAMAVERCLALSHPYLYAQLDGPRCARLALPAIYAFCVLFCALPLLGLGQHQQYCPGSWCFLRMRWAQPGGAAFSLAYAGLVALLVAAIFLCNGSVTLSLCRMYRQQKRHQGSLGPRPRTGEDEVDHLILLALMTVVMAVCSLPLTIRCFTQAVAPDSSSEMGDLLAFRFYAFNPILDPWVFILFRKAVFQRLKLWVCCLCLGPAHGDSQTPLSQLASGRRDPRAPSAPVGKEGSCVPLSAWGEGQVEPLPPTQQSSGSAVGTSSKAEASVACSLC

Row | In vitro activity grade | SMILES
1 | A (A≦0.1 μM) | O=C(NC(Cc1ccccc1)C(=O)O)c1ccc(-c2ccc(OCc3ccc(F)cc3F)cc2)cc1 (stereo not shown) [Example 8-18]
2 | B (0.1 μM<B≦1 μM) | Cc1ccc(COc2ccc(-c3ccc(C(=O)NC(Cc4ccccc4)C(=O)O)cc3)cc2)cc1 (stereo not shown) [Example 8-19]
3 | A (A≦0.1 μM) | O=C(NC(Cc1ccccc1)C(=O)O)c1ccc(-c2ccc(OCc3cccc(Cl)c3)cc2)cc1 (stereo not shown) [Example 8-22]
4 | A (A≦0.1 μM) | Cc1ccccc1COc1ccc(-c2ccc(C(=O)NC(Cc3ccccc3)C(=O)O)cc2)cc1 (stereo not shown) [Example 8-24]
5 | B (0.1 μM<B≦1 μM) | Cc1cc(C)cc(COc2ccc(-c3ccc(C(=O)NC(Cc4ccccc4)C(=O)O)cc3)cc2)c1 (stereo not shown) [Example 8-25]
6 | B (0.1 μM<B≦1 μM) | Cc1ccc(C)c(COc2ccc(-c3ccc(C(=O)NC(Cc4ccccc4)C(=O)O)cc3)cc2)c1 (stereo not shown) [Example 8-26]
7 | B (0.1 μM<B≦1 μM) | Cc1ccc(COc2ccc(-c3ccc(C(=O)NC(Cc4ccccc4)C(=O)O)cc3)cc2)c(C)c1 (stereo not shown) [Example 8-27]
8 | A (A≦0.1 μM) | O=C(NC(Cc1ccccc1)C(=O)O)c1ccc(-c2ccc(OCc3cccc([N+](=O)[O-])c3)cc2)cc1 (stereo not shown) [Example 8-28]
9 | B (0.1 μM<B≦1 μM) | O=C(NC(Cc1ccccc1)C(=O)O)c1ccc(-c2ccc(OCc3ccc(Cl)cc3)cc2)cc1 (stereo not shown) [Example 8-32]
10 | A (A≦0.1 μM) | Nc1cccc(COc2ccc(-c3ccc(C(=O)NC(Cc4ccccc4)C(=O)O)cc3)cc2)c1 (stereo not shown) [Example 8-39]

The next lines start with the compound.

Row | SMILES | In vitro activity grade
11 | O=C(NC(Cc1ccccc1)C(=O)O)c1cc(-c2ccc(OCc3ccccc3)cc2)[nH]n1 (stereo not shown) [Example 1-1, 2-{[5-(4-Benzyloxyphenyl)-1H-pyrazole-3-carbonyl]amino}-3-phenylpropionic acid] | A (A≦0.1 μM)
12 | O=C(NC(Cc1ccccc1)C(=O)O)c1ccc(-c2ccc(OCc3ccccc3)cc2)s1 (stereo not shown) [Example 2-1, 2-{[5-(4-Benzyloxyphenyl)thiophene-2-carbonyl]amino}-3-phenyl-propionic acid] | A (A≦0.1 μM)
13 | O=C(NC(Cc1ccccc1)C(=O)[O-])c1ccc(-c2ccc(OCc3ccccc3)nc2)cc1.[Na+] (stereo not shown) [Example 6-1, Sodium 2-[4-(6-benzyloxypyridin-3-yl)benzoylamino]-3-phenylpropionate] | A (A≦0.1 μM)
14 | O=C(NC(Cc1ccccc1)C(=O)O)c1ccc(-c2ccc(OCc3ccccc3)c(F)c2)cc1 (stereo not shown) [Example 7-1, 2-[(4′-Benzyloxy-3′-fluorobiphenyl-4-carbonyl)amino]-3-phenylpropionic acid] | A (A≦0.1 μM)
15 | O=C(NC(Cc1ccccc1)C(=O)O)c1ccc(-c2ccc(OCc3cccc(C(F)(F)F)c3)cc2)cc1 (stereo not shown) [Example 8-20] | B (0.1 μM<B≦1 μM)
16 | O=C(NC(Cc1ccccc1)C(=O)O)c1ccc(-c2ccc(OCc3ccc(C(F)(F)F)cc3)cc2)cc1 (stereo not shown) [Example 8-21] | C (1 μM<C)
17 | COc1cc(COc2ccc(-c3ccc(C(=O)NC(Cc4ccccc4)C(=O)O)cc3)cc2)cc(OC)c1 (stereo not shown) [Example 8-23] | A (A≦0.1 μM)
18 | O=C(NC(Cc1ccccc1)C(=O)O)c1ccc(-c2ccc(OCc3ccccc3OC(F)(F)F)cc2)cc1 (stereo not shown) [Example 8-29] | C (1 μM<C)
19 | O=C(NC(Cc1ccccc1)C(=O)O)c1ccc(-c2ccc(OCc3cccc(OC(F)(F)F)c3)cc2)cc1 (stereo not shown) [Example 8-30] | C (1 μM<C)
20 | O=C(NC(Cc1ccccc1)C(=O)O)c1ccc(-c2ccc(OCc3ccc(OC(F)(F)F)cc3)cc2)cc1 (stereo not shown) [Example 8-31] | C (1 μM<C)
21 | O=C(NC(Cc1ccccc1)C(=O)O)c1ccc(-c2ccc(OCC3CCCCC3)cc2)cc1 (stereo not shown) [Example 8-33] | B (0.1 μM<B≦1 μM)
22 | O=C(NC(Cc1ccccc1)C(=O)O)c1ccc(-c2ccc(OCCCn3cccc3)cc2)cc1 (stereo not shown) [Example 8-34] | B (0.1 μM<B≦1 μM)
23 | O=C(NC(Cc1ccccc1)C(=O)O)c1ccc(-c2ccc(OCCc3ccccc3)cc2)cc1 (stereo not shown) [Example 8-35] | A (A≦0.1 μM)
24 | CC(Oc1ccc(-c2ccc(C(=O)NC(Cc3ccccc3)C(=O)O)cc2)cc1)c1ccccc1 (stereo not shown) [Example 8-36] | B (0.1 μM<B≦1 μM)
25 | O=C(NC(Cc1ccccc1)C(=O)O)c1ccc(-c2ccc(OCCCc3ccccc3)cc2)cc1 (stereo not shown) [Example 8-37] | B (0.1 μM<B≦1 μM)
26 | CCCCOc1ccc(-c2ccc(C(=O)NC(Cc3ccccc3)C(=O)O)cc2)cc1 (stereo not shown) [Example 8-38] | B (0.1 μM<B≦1 μM)
27 | O=C(NC(Cc1ccccc1)C(=O)O)c1ccc(-c2ccc(OCCN3CCCCC3)cc2)cc1 (stereo not shown) [Example 8-40] | C (1 μM<C)

test system: not given; test: not given; details: not given

Row | SMILES | melting point [°C]
28 | O=C(NC(Cc1ccccc1)C(=O)O)c1cc(-c2ccc(OCc3ccccc3)cc2)[nH]n1 (stereo not shown) [Example 1-1, 2-{[5-(4-Benzyloxyphenyl)-1H-pyrazole-3-carbonyl]amino}-3-phenylpropionic acid] | 196 to 200
29 | O=C(NC(Cc1ccccc1)C(=O)O)c1ccc(-c2ccc(OCc3ccccc3)cc2)s1 (stereo not shown) [Example 2-1, 2-{[5-(4-Benzyloxyphenyl)thiophene-2-carbonyl]amino}-3-phenyl-propionic acid] | 215 to 216
30 | O=C(NC(Cc1ccccc1)C(=O)[O-])c1ccc(-c2ccc(OCc3ccccc3)nc2)cc1.[Na+] (stereo not shown) [Example 6-1, Sodium 2-[4-(6-benzyloxypyridin-3-yl)benzoylamino]-3-phenylpropionate] | 240 to 242
31 | O=C(NC(Cc1ccccc1)C(=O)O)c1ccc(-c2ccc(OCc3ccccc3)c(F)c2)cc1 (stereo not shown) [Example 7-1, 2-[(4′-Benzyloxy-3′-fluorobiphenyl-4-carbonyl)amino]-3-phenylpropionic acid] | 215
